Measured values from patent EP0292169B1, “Substrates for B-galactosidase” (Bayer Corporation, priority 1987, dated 1988).
Read-outs that look alike come from different tables or passages of the source.

Columns and labels:
[1] = Molar absorptivity of phenolic precursors of substrates; format: physicochemical
Description: The molar absorptivity (εmax) of the phenolic precursors of several substrates of this invention were measured and calculated according to the following formula: [formula] wherein A is the absorbance; b is the path length through the sample; and c is the concentration of solute.
The molar absorptivity of the phenolic precursor of ONPG, the most commonly used prior art substrate for β-galactosidase was likewise measured and calculated for comparative purposes. The aim was to identify phenolic precursors which would provide enhanced molar absorptivity to that of ONPG.

β-galactosidase [2] = target: T1, β-galactosidase (Escherichia coli, UniProt P00722); settings: available from the literature, cited from earlier work
[3] = Stability in aqueous environment; format: physicochemical
β-galactosidase [4] = target: T1, β-galactosidase; format: biochemical; settings: for V max / Km: calculated from experimental data of Figs. 1 and 2
β-galactosidase [5] = target: T1, β-galactosidase; format: biochemical; settings: antibody titration curve, Fig. 3

T1 sequence (P00722 2-1024): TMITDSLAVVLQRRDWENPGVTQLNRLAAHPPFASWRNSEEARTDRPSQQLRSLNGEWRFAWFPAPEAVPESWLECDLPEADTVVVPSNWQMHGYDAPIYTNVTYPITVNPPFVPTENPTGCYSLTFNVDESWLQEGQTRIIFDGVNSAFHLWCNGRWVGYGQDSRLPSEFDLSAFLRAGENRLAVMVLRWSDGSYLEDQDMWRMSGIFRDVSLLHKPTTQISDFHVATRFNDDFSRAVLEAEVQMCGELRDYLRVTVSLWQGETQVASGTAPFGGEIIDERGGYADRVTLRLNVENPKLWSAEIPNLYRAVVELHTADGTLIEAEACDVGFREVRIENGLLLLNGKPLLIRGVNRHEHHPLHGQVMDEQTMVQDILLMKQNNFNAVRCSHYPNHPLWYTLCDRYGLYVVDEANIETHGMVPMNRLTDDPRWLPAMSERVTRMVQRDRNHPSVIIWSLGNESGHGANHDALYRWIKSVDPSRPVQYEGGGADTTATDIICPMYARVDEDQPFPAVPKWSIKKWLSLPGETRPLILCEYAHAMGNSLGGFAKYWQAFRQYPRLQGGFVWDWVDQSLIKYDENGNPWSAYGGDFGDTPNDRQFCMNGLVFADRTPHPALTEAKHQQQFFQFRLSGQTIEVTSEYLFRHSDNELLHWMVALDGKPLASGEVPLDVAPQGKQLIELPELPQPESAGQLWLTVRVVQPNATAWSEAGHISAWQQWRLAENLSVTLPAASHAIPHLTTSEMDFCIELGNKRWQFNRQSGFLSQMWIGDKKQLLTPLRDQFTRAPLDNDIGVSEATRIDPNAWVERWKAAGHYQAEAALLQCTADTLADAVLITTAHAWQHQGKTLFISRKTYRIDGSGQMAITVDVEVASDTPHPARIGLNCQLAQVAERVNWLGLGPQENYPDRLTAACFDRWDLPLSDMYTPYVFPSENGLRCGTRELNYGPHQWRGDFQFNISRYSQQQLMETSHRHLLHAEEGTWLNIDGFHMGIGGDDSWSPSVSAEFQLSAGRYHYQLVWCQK

For O=[N+]([O-])c1cc(Cl)c(O)c(Cl)c1 [2,6-dichloro-4-nitrophenol], the “Molar Absorptivity (εmax)” value ([1]; 405 nm, pH 7.5) was 15.9 (405 nm, pH 7.5).

With O=[N+]([O-])c1ccc(O)c([N+](=O)[O-])c1 [DNP, 2,4-dinitro phenol] the “Molar Absorptivity (εmax)” value ([1]; pH 7.5) was 10.7 (405 nm, pH 7.5).

In the case of Cc1cc(C2(c3cc(C)c(O)c(Br)c3)OS(=O)(=O)c3ccccc32)cc(Br)c1O [bromocresol purple], the “Molar Absorptivity (εmax)” value ([1]; 585 nm, pH 8.5) was 50.7 (585 nm, pH 8.5).

In the case of O=[N+]([O-])c1ccc(O[C@@H]2O[C@H](CO)[C@H](O)[C@H](O)[C@H]2O)c([N+](=O)[O-])c1 [DNPG, 2,4-dinitro-phenyl-β-D-galactopyranoside], the Km (β-galactosidase [2]) is listed as 220 µM, the V max (β-galactosidase [2]) is listed as 0.13 ΔA/Min and the “stability in aqueous environment” value [3] is listed as “unstable”.

With “bromocresol purple-β-D-galactopyranoside [BCPG, reference compound]” the V max (β-galactosidase [4]) was 0.11 ΔA/Min and the Km (β-galactosidase [4]; read-out: Km) was 8000 µM.

For O=[N+]([O-])c1ccccc1O[C@@H]1O[C@H](CO)[C@H](O)[C@H](O)[C@H]1O [ONPG, O-nitrophenyl-β-D-galactopyranoside], the V max (β-galactosidase [2]) is listed as 0.03 ΔA/Min and the Km (β-galactosidase [2]; read-out: Km) is listed as 170 µM.

For O=[N+]([O-])c1ccc(O)c(Cl)c1 [CLNP, 2-chloro-4-nitrophenol], the “Molar Absorptivity (εmax)” value ([1]; 405 nm, pH 7.5) was 16.9 (405 nm, pH 7.5).

In the case of O=[N+]([O-])c1ccccc1O [ONP, orthonitro phenol, reference compound], the “Molar Absorptivity (εmax)” value ([1]; 405 nm, pH 7.5) was 3.0 (405 nm, pH 7.5).

In the case of Cc1cc(O)ccc1C1(c2ccc(O)cc2C)OS(=O)(=O)c2ccccc21 [metacresol purple], the “Molar Absorptivity (εmax)” value ([1]; 575 nm, pH 8.5) was 8.4 (575 nm, pH 8.5).

In the case of O=[N+]([O-])c1cccc(Cl)c1O [2-chloro-6-nitrophenol], the “Molar Absorptivity (εmax)” value ([1]; 405 nm, pH 7.5) was 4.6 (405 nm, pH 7.5).

With O=[N+]([O-])c1ccc(O[C@@H]2O[C@H](CO)[C@H](O)[C@H](O)[C@H]2O)c(Cl)c1 [CLNPG, 2-chloro-4-nitrophenyl-β-D-galactopyranoside] the “V max relative to that of ONPG” value (β-galactosidase [4]; CLNPG versus ONPG) was “at least four times”, the Km (β-galactosidase [4]) was 200 µM and the V max (β-galactosidase [4]) was 0.13 ΔA/Min. For the same compound, the “increase in assay sensitivity over ONPG” value (β-galactosidase [5]) was “four-fold”.
